Assay results as given in US20210355107A1, “MULTI-SUBSTITUTED PYRIDONE DERIVATIVES AND MEDICAL USE THEREOF” (Beijing Yuezhikangtai Biomedicines Co., Ltd., priority 2018, published 2021).

Columns and labels:
Format in all cases: biochemical
kinase Axl = target: T1, kinase Axl (Homo sapiens, UniProt P30530); assay: Mobility shift assay, inhibitory activity against kinase Axl; conditions: ATP at Km (81 μM), average of two independent experiments
T1 construct: purchased Carna 08-107
T1 sequence (P30530 473-894 limits assumed): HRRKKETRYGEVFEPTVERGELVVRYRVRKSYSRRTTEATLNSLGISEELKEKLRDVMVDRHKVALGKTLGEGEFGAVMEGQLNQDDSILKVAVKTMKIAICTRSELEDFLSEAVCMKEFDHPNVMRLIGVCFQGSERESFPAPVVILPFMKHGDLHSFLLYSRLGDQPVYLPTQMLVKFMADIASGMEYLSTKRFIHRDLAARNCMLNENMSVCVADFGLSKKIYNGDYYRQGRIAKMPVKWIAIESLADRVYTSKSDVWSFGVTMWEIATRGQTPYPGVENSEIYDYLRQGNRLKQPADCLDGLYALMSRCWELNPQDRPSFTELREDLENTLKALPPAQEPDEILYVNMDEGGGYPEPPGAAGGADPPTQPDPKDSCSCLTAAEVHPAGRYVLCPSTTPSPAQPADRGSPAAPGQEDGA
Description: (§1) In this test, mobility shift assay was used to test the inhibitory activity of compounds when ATP concentrations correspond to the Km of the kinases.
(§2) The concentration of test compound was 10-fold diluted from an initial concentration of 10 μM. The test result (IC50) was the average of two independent experiments.
(§3) For example, a compound at an initial concentration of 10 μM was adjusted to 500 μM with 100% DMSO, then serially diluted for 10 concentrations, and then subjected to 10-fold dilution with the buffer to prepare a diluted compound intermediate containing 10% DMSO, 5 μL of which was transferred to the 384-well plate.
(§4) 10 μL of the two enzyme solutions each was added to the 384-well plate and co-incubated with the compound for 10-15 min at room temperature.
(§5) 10 μL of the diluted substrate was added to the 384-well plate to initiate the reaction, which lasts for 1 h at 28° C.
(§6) 5) The conversion rate was read by Caliper Reader (Perkin Elmer) and the inhibition rate was calculated as the average of two tests.
(§7) 6) IC50 values were fitted with XL-fit software.

kinase c-MET = target: T2, kinase c-MET (Homo sapiens, UniProt P08581); assay: Mobility shift assay, inhibitory activity against kinase c-MET; conditions: ATP at Km (35 μM), average of two independent experiments
T2 construct: purchased Carna 08-151
Description: as §1, §2, §3, §4, §5, §6, §7

tyrosine kinase Mer = target: T3, tyrosine kinase Mer (Homo sapiens, UniProt Q12866); assay: HTRF assay, inhibitory activity against tyrosine kinase Mer; conditions: ATP at Km (30 μM), two duplicate wells
T3 construct: purchased Carna 08-108
T3 sequence (Q12866 528-999 limits assumed): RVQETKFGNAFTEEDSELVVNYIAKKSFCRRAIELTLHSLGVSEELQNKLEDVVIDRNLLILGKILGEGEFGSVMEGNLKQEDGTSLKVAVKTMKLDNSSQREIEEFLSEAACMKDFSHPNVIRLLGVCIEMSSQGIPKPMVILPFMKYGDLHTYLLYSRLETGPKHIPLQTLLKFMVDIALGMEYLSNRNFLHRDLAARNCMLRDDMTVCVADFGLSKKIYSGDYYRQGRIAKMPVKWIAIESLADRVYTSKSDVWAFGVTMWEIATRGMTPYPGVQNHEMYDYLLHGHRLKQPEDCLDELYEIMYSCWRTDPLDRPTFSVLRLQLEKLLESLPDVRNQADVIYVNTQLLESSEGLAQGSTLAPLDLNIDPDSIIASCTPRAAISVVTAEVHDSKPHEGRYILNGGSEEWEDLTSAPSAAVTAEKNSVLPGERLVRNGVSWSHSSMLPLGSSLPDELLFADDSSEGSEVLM
Description: (§8) Test Example 2: Evaluation of Inhibitory Activity (IC50) of Compounds disclosed herein against Tyrosine Kinases Mer and Tyro3
(§9) In this test, HTRF method was used to test the inhibitory activity of compounds when ATP concentrations correspond to the Km of the kinases. The control substance was RXDX-106. The concentration of test compound was 3-fold diluted from an initial concentration of 10 μM, and two duplicate wells were set.
(§10) Kinase Mer (Carna, Cat. No. 08-108, Lot. No. 14CBS-0421H); Tyro3 (Carna, Cat. No. 08-109, Lot. No. 08CBS-1186H); HTRF kinase-TK kit (Cisbio, Cat. No. 62TK0PEC), the kit comprising: biotin-TK substrate lyophilized powder (Cisbio, Cat. No. 61TK0BLC, Lot. No. 07A), streptavidin-XL665 (Cisbio, Cat. No. 610SAXLG, Lot. No. 126A), TK antibody-cryptate (Cisbio, Cat. No. 610SAXLG, Lot. No. 04A), and detection buffer (including EDTA) (Cisbio, Cat. No. 62TK0PEC, Lot. No. 12A); ATP (Sigma, Cat. No. A7699-5G, CAS No. 34369-07-8, Lot. No. SLBQ6014V); DMSO (Sigma, Cat. No. D5879-1L, Lot. No. SHBH9944); HEPES (Sigma, Cat. No. V900477-500G, CAS No. 7365-45-9, Lot. No. WXBC4716V); MgCl2 (Sigma, Cat. No. 208337-1KG, Lot. No. MKBX9508V); EGTA (Sigma, Cat. No. E3889-100g, CAS 67-42-5, […], Lot. No. SLBG8546V); NP-40 (Beijing Dingguo, Cat. No. DH218, Lot. No. 36R00160); DTT (Sigma, Cat. No. D0632-25g, CAS No. 3483-12-3, Lot. No. SLBF3964V); compound plate (Labcyte, Cat. No. LP0200, Lot. No. 0006386836); assay plate (Greiner, Cat. No. 784075, Lot. No. E16123HM); control substance RXDX-106 (prepared according to the method disclosed in patent WO2013074633).
(§11) 1) Preparation of a buffer: 50 mM HEPES, 10 mM MgCl2, 1 mM EGTA, 0.01% NP-40, 2 mM DTT.
(§12) 2) Preparation of control substance and test samples: RXDX-106 and the compounds disclosed herein were each dissolved in DMSO to 10 mM and then diluted to 1 mM or an appropriate concentration with DMSO, and then serial double dilution was performed using BRAVO (Agilent). 100 nL of each was transferred from a compound plate (Labcyte-LP0200) to an assay plate (Greiner-784075) using ECHO 555 (Labcyte). The final concentration of DMSO was 1%.
(§13) 3) Mer and Tyro3 were each diluted to 0.5 nM and 1.2 nM with the detection buffer (Cisbio, Cat. No. 62TK0PEC, Lot. No. 12A). 5 μL of each was added to a 384-well plate and incubated with the compounds disclosed herein for 30 min at 22-25° C. Final concentrations of Mer and Tyro3 were 0.25 nM and 0.6 nM, respectively.
(§14) 4) Biotin-TK substrate and ATP were each diluted to a concentration twice the final concentration with 1× kinase buffer made up of HEPES, NaN3, BSA and orthovanadate. 5 μL of the mixture of substrate and ATP was added to the 384-well plate to initiate the reaction, which lasts for 1 h at 22-25° C.
(§15) 5) Streptavidin-XL665 and TK antibody-cryptate were diluted to 250 nM and 0.5 nM, respectively, with the detection buffer. […] of each of the two solutions was added to the 384-well plate to initiate the reaction, which lasts for 1 h at 22-25° C. The final concentrations of streptavidin-XL665 and TK antibody-cryptate were 125 nM and 0.25 nM, respectively.
(§16) 6) The fluorescence intensities at 665 nm and 615 nm were read with an Envision Reader (PerkinElmer) .
(§17) 7) IC50 values of the compounds were fitted with XL-fit software.

tyrosine kinase Tyro3 = target: T4, tyrosine kinase Tyro3 (Homo sapiens, UniProt Q06418); assay: HTRF assay, inhibitory activity against tyrosine kinase Tyro3; conditions: ATP at Km (50 μM), two duplicate wells
T4 construct: purchased Carna 08-109
T4 sequence (Q06418 453-890 limits assumed): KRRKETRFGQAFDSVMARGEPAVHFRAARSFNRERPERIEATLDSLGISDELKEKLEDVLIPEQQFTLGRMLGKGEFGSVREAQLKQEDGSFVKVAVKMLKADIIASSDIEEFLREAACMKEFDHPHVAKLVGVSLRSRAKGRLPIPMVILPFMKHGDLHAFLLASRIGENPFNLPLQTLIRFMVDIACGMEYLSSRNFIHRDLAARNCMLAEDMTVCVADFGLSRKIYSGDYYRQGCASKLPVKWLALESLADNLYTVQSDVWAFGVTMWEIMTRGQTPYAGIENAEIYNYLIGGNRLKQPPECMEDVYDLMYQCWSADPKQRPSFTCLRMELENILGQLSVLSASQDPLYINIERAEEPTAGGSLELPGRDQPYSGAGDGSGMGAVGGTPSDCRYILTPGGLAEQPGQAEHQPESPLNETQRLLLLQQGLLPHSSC
Description: as §8, §9, §10, §11, §12, §13, §14, §15, §16, §17

T2 sequence (P08581 956-1390 limits assumed): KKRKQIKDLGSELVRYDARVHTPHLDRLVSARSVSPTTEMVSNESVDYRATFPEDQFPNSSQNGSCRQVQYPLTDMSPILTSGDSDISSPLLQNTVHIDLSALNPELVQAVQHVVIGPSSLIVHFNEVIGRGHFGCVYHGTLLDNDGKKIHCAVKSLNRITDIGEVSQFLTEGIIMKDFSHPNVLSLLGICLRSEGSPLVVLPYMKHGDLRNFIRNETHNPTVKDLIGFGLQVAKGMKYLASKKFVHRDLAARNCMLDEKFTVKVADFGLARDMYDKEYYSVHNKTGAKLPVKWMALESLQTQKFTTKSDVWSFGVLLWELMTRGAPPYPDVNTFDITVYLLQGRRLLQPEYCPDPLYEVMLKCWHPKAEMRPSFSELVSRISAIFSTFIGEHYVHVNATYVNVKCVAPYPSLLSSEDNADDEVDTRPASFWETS

IC50 (kinase Axl) [nM]	IC50 (kinase c-MET) [nM]	IC50 (tyrosine kinase Mer) [nM]	IC50 (tyrosine kinase Tyro3) [nM]	Structure (SMILES)
13	133	4.9	7.51	COc1ccc(-c2cnc(N)c(-c3ccc(NC(=O)c4cn(C(C)C)c(C#N)c(-c5ccc(F)cc5)c4=O)cc3F)c2)cc1OC [Example 1, N-(4-(2-amino-5-(3,4-dimethoxyphenyl)pyridin-3-yl)-3-fluoro-phenyl)-6-cyano-5-(4-fluorophenyl)-1-isopropyl-4-oxo-1,4-dihydropyridine-3-carboxamide]
4.6	70	1.3	3	CCn1cc(-c2cnc(N)c(-c3ccc(NC(=O)c4cn(C5CCC5)c(C#N)c(-c5ccc(F)cc5)c4=O)cc3F)c2)cn1 [Example 9, N-(4-(2-amino-5-(1-ethyl-1H-pyrazol-4-yl)pyridin-3-yl)-3-fluoro-phenyl)-6-cyano-5-(4-fluorophenyl)-1-cyclobutyl-4-oxo-1,4-dihydropyridine-3-carboxamide]
		6.4	3.3	COc1cc2nccc(Oc3ccc(NC(=O)c4cn(C(C)C)c(=O)n(-c5ccc(F)cc5)c4=O)cc3F)c2cc1OC [RXDX-106, reference compound]
